For this series the following is noted: for aqueous solubility: pH 6.8.

SMILES strings stand for the structures. Converted amounts (≈) assume the structure as drawn.

We go through 46 molecules from the Biogen ADME set (Fang et al. 2023).

On to `O=C(c1cnc(-c2ccccc2)s1)N1CCOC2(CCCC2)C1`, for which the MDR1-MDCK efflux ratio is 0.58; the intrinsic clearance, human liver microsomes stood at 21.4 mL/min/kg; the intrinsic clearance, rat liver microsomes was found to be 774 mL/min/kg; the aqueous solubility worked out at 39 µg/mL (≈ 119 µM).

On to `O=C(Nc1nccs1)[C@@H]1C[C@@H]2CCCC[C@@H]2N1C(=O)c1ccccc1`, for which the MDR1-MDCK efflux ratio came out at 6.31; the intrinsic clearance, human liver microsomes was determined as 36.7 mL/min/kg; the intrinsic clearance, rat liver microsomes was found to be 498 mL/min/kg.

As for `Clc1snnc1CN1CCCN(c2nc3ccccc3[nH]2)CC1`, the MDR1-MDCK efflux ratio amounted to 13.1; the intrinsic clearance, human liver microsomes worked out at 105 mL/min/kg; the intrinsic clearance, rat liver microsomes was determined as 1440 mL/min/kg; the aqueous solubility worked out at 28.2 µg/mL (≈ 80.7 µM).

With `CC1(C)CN(CC(=O)NCC#N)c2cccc(Cl)c21`, the MDR1-MDCK efflux ratio turned out to be 0.597; the intrinsic clearance, human liver microsomes came to 21.2 mL/min/kg; the intrinsic clearance, rat liver microsomes worked out at 444 mL/min/kg; the aqueous solubility was found to be 28.5 µg/mL (≈ 103 µM).

For the molecule `Cc1cc(C(=O)NCC2CC2)n2nccc2n1`, the MDR1-MDCK efflux ratio was 0.576; the intrinsic clearance, human liver microsomes stood at 25.7 mL/min/kg; the intrinsic clearance, rat liver microsomes amounted to 74.9 mL/min/kg; the aqueous solubility amounted to 50.4 µg/mL (≈ 219 µM).

With `CC(Oc1ccc(Cl)cc1)C(=O)N1CCC(n2c(=O)[nH]c3ccccc32)CC1` (stereo not drawn), the intrinsic clearance, human liver microsomes was 36.2 mL/min/kg; the intrinsic clearance, rat liver microsomes is 525 mL/min/kg; the aqueous solubility was 28.9 µg/mL (≈ 72.4 µM).

In the case of `O=C(CNc1ccc(C(=O)N2CCCC2)cc1)N1CCCCC1`, the MDR1-MDCK efflux ratio turned out to be 5.78; the intrinsic clearance, human liver microsomes is at most 4.74 mL/min/kg; the intrinsic clearance, rat liver microsomes is 92.7 mL/min/kg; the aqueous solubility stood at 54.2 µg/mL (≈ 172 µM).

For the molecule `NC(=O)C1(Cc2ccc(-c3ccncc3)cc2)CCN(C(=O)Cc2cccc(F)c2)CC1`, the fraction unbound, human plasma came out at 0.102; the fraction unbound, rat plasma came out at 0.114; the aqueous solubility was determined as 63 µg/mL (≈ 146 µM).

Regarding `CC(C)CCNC(=O)CSc1nc2ccccc2[nH]1`, the MDR1-MDCK efflux ratio was found to be 3.98; the intrinsic clearance, human liver microsomes came to 114 mL/min/kg; the intrinsic clearance, rat liver microsomes was determined as 1110 mL/min/kg.

Molecule `O=C(CCc1cnn(-c2ccccc2)c1)N1CCC(n2c(=O)[nH]c3ccccc32)CC1` displayed an intrinsic clearance, human liver microsomes of 567 mL/min/kg and an intrinsic clearance, rat liver microsomes of 3770 mL/min/kg.

With `O=C(NC1CCCC1)C(=O)c1ccc2c(c1)CCC2`, the MDR1-MDCK efflux ratio came out at 0.548; the intrinsic clearance, human liver microsomes was 163 mL/min/kg; the intrinsic clearance, rat liver microsomes was found to be 908 mL/min/kg; the aqueous solubility stood at 31.3 µg/mL (≈ 122 µM).

`O=C(Nc1nc2ccccc2[nH]1)C1CC1c1ccccc1` (stereo not drawn) came in with an aqueous solubility of 1.1 µg/mL (≈ 3.97 µM).

As for `Cc1ccnc2[nH]c(CSCc3ccccc3)nc12`, the intrinsic clearance, human liver microsomes stood at 84.4 mL/min/kg and the intrinsic clearance, rat liver microsomes worked out at 647 mL/min/kg.

As for `C#CCOc1ccc(OC)cc1C(N)=O`, the MDR1-MDCK efflux ratio was 0.717; the intrinsic clearance, human liver microsomes was found to be 13.8 mL/min/kg; the intrinsic clearance, rat liver microsomes amounted to 73.3 mL/min/kg.

Take `c1ccc(-c2ccc(CN3CCCCCCC3)cc2)cc1`: the MDR1-MDCK efflux ratio turned out to be 0.675; the fraction unbound, human plasma worked out at 0.00243; the intrinsic clearance, human liver microsomes came to 39.5 mL/min/kg; the intrinsic clearance, rat liver microsomes came out at 1530 mL/min/kg. Besides, the aqueous solubility came out at 9.5 µg/mL (≈ 34 µM).

With `CC(C)NC(=O)c1cc(-c2ccccc2)n(-c2ccccn2)n1`, the MDR1-MDCK efflux ratio stood at 0.762; the intrinsic clearance, human liver microsomes turned out to be 8.11 mL/min/kg; the intrinsic clearance, rat liver microsomes came to 80.5 mL/min/kg; the aqueous solubility amounted to 54.1 µg/mL (≈ 176 µM).

Turning to `O=C(NCc1ccc(-n2cncn2)nc1)c1csc2c1CCCC2`, the MDR1-MDCK efflux ratio came to 0.992; the intrinsic clearance, human liver microsomes is 22.1 mL/min/kg; the intrinsic clearance, rat liver microsomes was 196 mL/min/kg; the aqueous solubility came out at 5.3 µg/mL (≈ 15.6 µM).

`O=C1C(N2CCC(n3c(=O)[nH]c4ccccc43)CC2)CCN1c1ccccc1` (stereo not drawn) showed an intrinsic clearance, human liver microsomes of 4.86 mL/min/kg; an intrinsic clearance, rat liver microsomes of 139 mL/min/kg; an aqueous solubility of 62 µg/mL (≈ 165 µM).

Regarding `CC(=O)Nc1cnn(CC2CCN(C)CC2)c1`, the MDR1-MDCK efflux ratio was 3.56; the intrinsic clearance, human liver microsomes is at most 4.74 mL/min/kg; the intrinsic clearance, rat liver microsomes is at most 10.7 mL/min/kg; the aqueous solubility was determined as 23.5 µg/mL (≈ 99.4 µM).

For the molecule `Cc1nc(-c2cccnc2)sc1C(=O)Nc1ccccc1-c1cn2c(CN3CCOCC3)csc2n1`, the MDR1-MDCK efflux ratio worked out at 3.28 and the aqueous solubility worked out at 0.65 µg/mL (≈ 1.26 µM).

For the molecule `COc1ccc2nc(C)nc(N3CC(O)(c4ccc(F)cc4)C3)c2c1`, the MDR1-MDCK efflux ratio turned out to be 3.87; the intrinsic clearance, human liver microsomes amounted to 26.9 mL/min/kg; the intrinsic clearance, rat liver microsomes turned out to be 468 mL/min/kg; the aqueous solubility came out at 19.4 µg/mL (≈ 57.3 µM).

Consider `NC1CCCC1C(=O)N1CCC(c2c[nH]c3ncccc23)CC1` (stereo not drawn), for which the MDR1-MDCK efflux ratio was determined as 6.76; the fraction unbound, human plasma worked out at 0.521; the intrinsic clearance, human liver microsomes was at most 4.74 mL/min/kg.

Consider `CC(C)CC(=O)Nc1cccnc1N(C)C`, for which the MDR1-MDCK efflux ratio was 0.597; the intrinsic clearance, human liver microsomes was at most 4.74 mL/min/kg; the intrinsic clearance, rat liver microsomes is 57.9 mL/min/kg; the aqueous solubility worked out at 30.3 µg/mL (≈ 137 µM).

For the molecule `CN1CCc2nc(NC(=O)c3ccc(Cl)s3)sc2C1`, the MDR1-MDCK efflux ratio was determined as 0.586; the intrinsic clearance, human liver microsomes amounted to 20 mL/min/kg; the intrinsic clearance, rat liver microsomes is 477 mL/min/kg; the aqueous solubility is 48.8 µg/mL (≈ 155 µM).

`COc1cccc(-c2nc(C(=O)O)cs2)c1OC`: the MDR1-MDCK efflux ratio came out at 0.916; the intrinsic clearance, human liver microsomes was at most 4.74 mL/min/kg; the intrinsic clearance, rat liver microsomes was at most 10.7 mL/min/kg; the aqueous solubility was 37.7 µg/mL (≈ 142 µM).

As for `COCC(=O)N1CC[C@H](c2nnc(-c3ccc(C)cc3)o2)C1`, the MDR1-MDCK efflux ratio was 1.36; the intrinsic clearance, human liver microsomes is at most 4.74 mL/min/kg; the intrinsic clearance, rat liver microsomes was at most 10.7 mL/min/kg; the aqueous solubility came out at 52.7 µg/mL (≈ 175 µM).

For the molecule `COc1cc(CN[C@@H]2CCC[C@H]2Cc2cc(C)no2)ccc1OC(C)C`, the intrinsic clearance, human liver microsomes stood at 66.8 mL/min/kg and the intrinsic clearance, rat liver microsomes was determined as 2380 mL/min/kg.

For the molecule `COc1cccc(CN2CCc3nc(-c4cnccn4)nc(O)c3C2)c1`, the intrinsic clearance, human liver microsomes was at most 4.74 mL/min/kg and the intrinsic clearance, rat liver microsomes is 26.6 mL/min/kg.

For `O=c1[nH]c2cc3ccccc3c(=O)n2c2sc3c(c12)CCCC3`, the aqueous solubility amounted to 15.2 µg/mL (≈ 47 µM).

For `CCOC(=O)Nc1ccc2c(c1)N(C(=O)CN(CC)CC)c1ccccc1CC2`, the MDR1-MDCK efflux ratio is 21.7; the intrinsic clearance, human liver microsomes was 44.9 mL/min/kg; the intrinsic clearance, rat liver microsomes turned out to be 360 mL/min/kg; the aqueous solubility is 86.4 µg/mL (≈ 218 µM).

On to `CCCc1cc(N2CCc3c(nc(C4CC4)n3C)C2)n2ncnc2n1`, for which the MDR1-MDCK efflux ratio came to 38.3; the fraction unbound, human plasma amounted to 0.476; the fraction unbound, rat plasma was 0.244; the intrinsic clearance, human liver microsomes worked out at 9.63 mL/min/kg. The intrinsic clearance, rat liver microsomes amounted to 179 mL/min/kg and the aqueous solubility came out at 53.3 µg/mL (≈ 158 µM).

For the molecule `Cc1nnc(N2CC[C@H](O)C2)c(C#N)c1C`, the MDR1-MDCK efflux ratio is 1.3; the intrinsic clearance, human liver microsomes is at most 4.74 mL/min/kg; the intrinsic clearance, rat liver microsomes is at most 10.7 mL/min/kg; the aqueous solubility was determined as 31.2 µg/mL (≈ 143 µM).

In the case of `O=C([C@H]1CCCN(Cc2ccc(Cl)cc2)C1)N1CCc2ccccc2C1`, the MDR1-MDCK efflux ratio was 0.788; the intrinsic clearance, human liver microsomes stood at 251 mL/min/kg; the intrinsic clearance, rat liver microsomes was determined as 3840 mL/min/kg; the aqueous solubility was 43.2 µg/mL (≈ 117 µM).

As to `CN1CCC(NC(=O)COc2ccc(C#N)cc2)CC1`, the MDR1-MDCK efflux ratio turned out to be 2.44; the intrinsic clearance, human liver microsomes was at most 4.74 mL/min/kg; the intrinsic clearance, rat liver microsomes is at most 10.7 mL/min/kg; the aqueous solubility amounted to 35.2 µg/mL (≈ 129 µM).

Turning to `CCn1ncc(-c2cc(C(F)F)nc(NCCCOC)n2)c1C`, the MDR1-MDCK efflux ratio was 0.525; the intrinsic clearance, human liver microsomes was determined as 43.6 mL/min/kg; the intrinsic clearance, rat liver microsomes came to 412 mL/min/kg; the aqueous solubility turned out to be 44.7 µg/mL (≈ 137 µM).

For the molecule `O=C(c1ccc(O)cc1)N1CCN(c2ncnc3c2CCC3)CC1`, the MDR1-MDCK efflux ratio came to 43.2; the intrinsic clearance, human liver microsomes is 12.1 mL/min/kg; the intrinsic clearance, rat liver microsomes turned out to be 178 mL/min/kg.

Consider `CS(=O)(=O)N1CCc2c(cccc2NC(=O)c2ccc(F)cc2)C1`, for which the MDR1-MDCK efflux ratio worked out at 6.4 and the aqueous solubility worked out at 0.37 µg/mL (≈ 1.06 µM).

Turning to `CC(C)NC(=O)Cn1nnnc1C(C)(C)C`, the MDR1-MDCK efflux ratio stood at 1.25; the intrinsic clearance, human liver microsomes is at most 4.74 mL/min/kg; the intrinsic clearance, rat liver microsomes came to 27.1 mL/min/kg; the aqueous solubility amounted to 23.3 µg/mL (≈ 103 µM).

As for `Cc1ccc(OCC2(O)CCN(CC3(O)CCN(c4ccccc4C)CC3)CC2)cc1`, the MDR1-MDCK efflux ratio was determined as 0.655; the fraction unbound, human plasma worked out at 0.00911; the intrinsic clearance, human liver microsomes worked out at 400 mL/min/kg.

Consider `CN(C)CC(C)(C)CNc1cn[nH]c(=O)c1Br`, for which the MDR1-MDCK efflux ratio was found to be 0.676; the intrinsic clearance, human liver microsomes worked out at 8.54 mL/min/kg; the intrinsic clearance, rat liver microsomes was 43.9 mL/min/kg.

Consider `Cc1cc(C)c(NC(=O)c2ccnc(OC3CCC3)c2)c(C)n1`, for which the MDR1-MDCK efflux ratio worked out at 1.43; the intrinsic clearance, human liver microsomes was at most 4.74 mL/min/kg; the intrinsic clearance, rat liver microsomes stood at 54.3 mL/min/kg; the aqueous solubility turned out to be 36.1 µg/mL (≈ 116 µM).

On to `Cn1cc(Br)cc1C(=O)N1CCc2nn[nH]c2C1`, for which the intrinsic clearance, human liver microsomes was at most 4.74 mL/min/kg and the intrinsic clearance, rat liver microsomes amounted to 43.8 mL/min/kg.

For `NCc1nnc(CCc2ccccc2)o1`, the intrinsic clearance, human liver microsomes is at most 4.74 mL/min/kg and the intrinsic clearance, rat liver microsomes was at most 10.7 mL/min/kg.

Turning to `O=C1CN(C(=O)c2cccc(Oc3cccc(C(F)(F)F)c3)c2)CCN1`, the MDR1-MDCK efflux ratio stood at 8.39; the intrinsic clearance, human liver microsomes stood at 5.25 mL/min/kg; the intrinsic clearance, rat liver microsomes came to 66.1 mL/min/kg; the aqueous solubility was 39 µg/mL (≈ 107 µM).

With `CC(=O)N1CC[C@H]2O[C@H]3c4ccc(O[C@@H]5O[C@H](CO)[C@@H](O[C@@H]6O[C@H](CO)[C@H](O)[C@H](O)[C@H]6O)[C@H](O)[C@H]5O)cc4OC(C)(C)[C@@H]3C[C@H]2C1`, the MDR1-MDCK efflux ratio amounted to 0.675; the intrinsic clearance, human liver microsomes was at most 4.74 mL/min/kg; the intrinsic clearance, rat liver microsomes is at most 10.7 mL/min/kg.

As for `Cc1ccnc(N2CCC(OCC3CCCC3)CC2)n1`, the MDR1-MDCK efflux ratio is 0.515; the intrinsic clearance, human liver microsomes came to 108 mL/min/kg; the intrinsic clearance, rat liver microsomes worked out at 5910 mL/min/kg.

A word on the aqueous solubility: it is the concentration that dissolves in the medium under given conditions. A higher aqueous solubility goes with a readily soluble substance.
